Data on ten compounds can be found in PubChem BioAssay (NCI).

Test systems include TK-10 renal; IGROV1 ovarian; SF-295 CNS; HS 578T breast; K-562 leukemia; MOLT-4 leukemia; SK-MEL-2 melanoma; SF-539 CNS; SW-620 colon; NCI-H522 lung.
Holding throughout (assay): DTP human tumour cell line panel, 48 h

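Protocol summary: plate cells (96-well), add compound at 5 concentrations, incubate 48 h, interpolate endpoints linearly. The concentration for 50% growth inhibition is given as GI50. TGI is the concentration that stops growth completely.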

In the case of `Cc1ccc(S(=O)(=O)Oc2ccc3c4c(c(=O)oc3c2)CCCCCC4)cc1`, the GI50 (as a rule, the concentration that inhibits growth by half) with TK-10 renal is greater than 100 µM; in the experiment with IGROV1 ovarian, greater than 100 µM; in the experiment with SF-295 CNS, greater than 100 µM; in the experiment on HS 578T breast it was greater than 100 µM; with K-562 leukemia it was 3.88 µM; in the experiment with MOLT-4 leukemia, 9.57 µM. The GI50 in the experiment on SK-MEL-2 melanoma was 75 µM; in the experiment on SF-539 CNS, greater than 100 µM; in the experiment with SW-620 colon, 2760 nM; in the experiment with NCI-H522 lung it was greater than 100 µM. In addition, the TGI in the experiment on TK-10 renal, in the experiment on IGROV1 ovarian, in the experiment on SF-295 CNS, with HS 578T breast, in the experiment with K-562 leukemia and in the experiment with MOLT-4 leukemia was greater than 100 µM throughout. Also, the TGI in the experiment on SK-MEL-2 melanoma, with SF-539 CNS, with SW-620 colon and in the experiment on NCI-H522 lung was greater than 100 µM each time.
In the case of `O=[N+]([O-])c1ccc(NN=C2CN3CCN(C2)c2ccccc23)c([N+](=O)[O-])c1`, the TGI in the experiment with TK-10 renal, in the experiment on IGROV1 ovarian, with SF-295 CNS, with HS 578T breast, in the experiment on K-562 leukemia and in the experiment with MOLT-4 leukemia was greater than 100 µM throughout. The TGI in the experiment on SF-539 CNS, in the experiment with SW-620 colon and in the experiment on NCI-H522 lung was greater than 100 µM in each case.
In the case of `O=[N+]([O-])/C=C/c1c(Cl)cccc1Cl`, the TGI (as a rule, the concentration giving total growth inhibition) with TK-10 renal is 8.25 µM; in the experiment on IGROV1 ovarian it was 10.3 µM; with SF-295 CNS it was 14.5 µM; in the experiment on HS 578T breast, greater than 62.9 µM; with K-562 leukemia, 8.61 µM; with SK-MEL-2 melanoma, 14 µM. Besides, the TGI in the experiment with SF-539 CNS is 5.12 µM; with SW-620 colon, 2.18 µM; with NCI-H522 lung, 5.95 µM.
With `CO/N=C(\COc1ccc2c(=O)c3ccccc3oc2c1)c1ccccc1`, the GI50 with TK-10 renal was 18.6 µM; with IGROV1 ovarian it was 39.6 µM; with SF-295 CNS, 28.7 µM; in the experiment with HS 578T breast, 30.6 µM; in the experiment on K-562 leukemia, 72.1 µM; with MOLT-4 leukemia it was greater than 100 µM. In addition, the GI50 in the experiment with SF-539 CNS was 19 µM; in the experiment with SW-620 colon it was 55900 nM; with NCI-H522 lung it was 33.4 µM. Moreover, the TGI in the experiment with TK-10 renal was 38.1 µM; with IGROV1 ovarian, greater than 100 µM; with SF-295 CNS it was 78.1 µM; with HS 578T breast, 89.8 µM; in the experiment on K-562 leukemia, greater than 100 µM; in the experiment with MOLT-4 leukemia, greater than 100 µM. Further, the TGI was 50.6 µM in the experiment with SF-539 CNS, greater than 100 µM in the experiment on SW-620 colon and greater than 100 µM in the experiment on NCI-H522 lung.
For the compound `CC(C)(C)C1CCC2c3c([nH]c4ccccc34)C3C(=O)N(c4ccc(C#N)cc4)C(=O)C3C2C1` (configuration not stated), the TGI in the experiment on TK-10 renal is 63.4 µM; in the experiment on IGROV1 ovarian it was greater than 100 µM; with SF-295 CNS it was greater than 100 µM; in the experiment on HS 578T breast it was 37 µM; in the experiment on K-562 leukemia it was 30.4 µM; with MOLT-4 leukemia it was greater than 100 µM. Besides, the TGI was 30 µM in the experiment with SK-MEL-2 melanoma, 43.2 µM in the experiment on SF-539 CNS and 39.7 µM with SW-620 colon.
On to `C=C(C)[C@@H]1CCC=C2CC[C@]3(C)[C@H](CC[C@@H]4[C@@]5(C)CCCNC(C)(C)[C@@H]5CC[C@]43C)[C@H]21`, for which the GI50 with TK-10 renal is 2.02 µM; in the experiment on IGROV1 ovarian it was 1.91 µM; in the experiment with SF-295 CNS it was 1.69 µM; in the experiment with HS 578T breast, 2.01 µM; in the experiment on MOLT-4 leukemia it was 1.87 µM; in the experiment on SK-MEL-2 melanoma, 2.34 µM. In addition, the GI50 in the experiment on SF-539 CNS is 1.89 µM; with SW-620 colon, 1840 nM; in the experiment with NCI-H522 lung, 2.28 µM. The TGI in the experiment with TK-10 renal worked out at 4.98 µM; with IGROV1 ovarian, 3.54 µM; in the experiment with SF-295 CNS, 3.13 µM; in the experiment with HS 578T breast it was 4.87 µM; in the experiment with MOLT-4 leukemia, 4.09 µM; with SK-MEL-2 melanoma, 5.5 µM. Besides, the TGI in the experiment on SF-539 CNS worked out at 3.58 µM; with SW-620 colon it was 3.59 µM; in the experiment with NCI-H522 lung, 5.64 µM.
As for `C(/C=N/NC1=NCCCCN1)=N\NC1=NCCCCN1`, the TGI in the experiment on TK-10 renal, with IGROV1 ovarian, with SF-295 CNS, in the experiment with HS 578T breast, with K-562 leukemia and with MOLT-4 leukemia was greater than 100 µM each time. For the same compound, the TGI in the experiment with SF-539 CNS, with SW-620 colon and with NCI-H522 lung was greater than 100 µM in each case.
In the case of `O=S(=O)(NC1CCCCC1)c1ccc2c(c1)OCCOCCOCCOCCO2`, the TGI with TK-10 renal, in the experiment on IGROV1 ovarian, with SF-295 CNS, in the experiment on HS 578T breast, with K-562 leukemia and with MOLT-4 leukemia was greater than 100 µM in each case. Further, the TGI in the experiment with SF-539 CNS, in the experiment on SW-620 colon and with NCI-H522 lung was greater than 100 µM in each case.
With `CCCn1c2c(c3c(O)cccc31)C(=O)c1ccccc1-2`, the GI50 is 16.4 µM with TK-10 renal; 10.9 µM in the experiment on IGROV1 ovarian; 23 µM in the experiment on SF-295 CNS; 33.1 µM with HS 578T breast; greater than 100 µM with K-562 leukemia; 0.0475 µM in the experiment on MOLT-4 leukemia. Besides, the GI50 in the experiment on SK-MEL-2 melanoma was 87 µM; with SW-620 colon it was greater than 100000 nM; with NCI-H522 lung it was 23 µM. Moreover, the TGI in the experiment with TK-10 renal was greater than 100 µM; in the experiment on IGROV1 ovarian it was greater than 100 µM; in the experiment on SF-295 CNS, 67.8 µM; with HS 578T breast it was greater than 100 µM; in the experiment with K-562 leukemia, greater than 100 µM; in the experiment with MOLT-4 leukemia it was 7.31 µM. The TGI in the experiment on SK-MEL-2 melanoma, in the experiment with SW-620 colon and in the experiment with NCI-H522 lung was greater than 100 µM in each case.
With `Nc1ccn(C2CC(F)C(CO)O2)c(=O)n1` (configuration not stated), the GI50 in the experiment on TK-10 renal, in the experiment with IGROV1 ovarian, with SF-295 CNS, in the experiment with HS 578T breast, in the experiment with K-562 leukemia and in the experiment on MOLT-4 leukemia was greater than 100 µM each time. For the same compound, the GI50 in the experiment with SK-MEL-2 melanoma, with SF-539 CNS and in the experiment with NCI-H522 lung was greater than 100 µM throughout. For the same compound, the TGI in the experiment on TK-10 renal, in the experiment with IGROV1 ovarian, in the experiment with SF-295 CNS, in the experiment on HS 578T breast, with K-562 leukemia and in the experiment on MOLT-4 leukemia was greater than 100 µM in each case. In addition, the TGI in the experiment with SK-MEL-2 melanoma, in the experiment with SF-539 CNS and with NCI-H522 lung was greater than 100 µM in each case.
